Here are results for 39 molecules from the C3SDB collision cross section collection.

For series [1] the following is noted: instrument: TW, calibrated with phosphatidylcholines (ESI+) and phosphatidylethanolamines (ESI-).
The conditions of series [2]: instrument: DT, stepped-field.

Take `CCCCCCCCCCCCCCCC(=O)N[C@@H](CO)[C@H](O)CCCCCCCCCCCCCCC` [Cer(d18:0/16:0)]: in series [1] ([M+H]+), the “collision cross section (N2)” value is given as 255.1 Å². On the same count and under the same terms, in the case of `CCCCCCCCCCCCC=CC[C@@H](O)[C@H](CO)NC(=O)CCCCCCCCCCCCCCCCC` [Cer(d18:0/18:1)] it was 261.3 Å²; in that of `CCCCCCCCCCCCCCCCCCCCCC(=O)N[C@@H](CO)[C@H](O)CCCCCCCCCCCCCCC` [Cer(d18:0/22:0)], 274.1 Å²; in that of `CCCCCCCCCCCCCCCCCCCCCCCC(=O)N[C@@H](CO)[C@H](O)CCCCCCCCCCCCCCC` [Cer(d18:0/24:0)], 279.6 Å². Take `CCCCCCCCCCCCC=CC[C@@H](O)[C@H](CO)NC(=O)CCCCCCCCCCCCCCCCCCCCCCCCC` [Cer(d18:0/26:1)]: in series [1] ([M+H]+), the “collision cross section (N2)” value is 284.5 Å².

On to `CCCCCCCCCCCCC=CC[C@@H](O)[C@H](CO)NC(=O)CCCCCCCCCCCCCCC` [Cer(d18:1/16:0)], for which the “collision cross section (N2)” value in series [1] ([M-H]-) amounted to 243.7 Å². Take `CCCCCCCCCCCCC=CC[C@@H](O)[C@H](CO)NC(=O)CCCCCCCCCCCCCCCCC` [Cer(d18:1/18:0)]: the “collision cross section (N2)” value in series [1] ([M+H]+) is recorded as 261.2 Å²; in series [1] ([M-H]-) it was 249.7 Å². On to `CCCCCCCCCCCCC=CC[C@@H](O)[C@H](CO)NC(=O)CCCCCCCCCCCCCCCCCCCCCCCCC` [Cer(d18:1/26:0)], for which, in series [1] ([M+H]+), the “collision cross section (N2)” value is listed as 284.4 Å². `CCCCC/C=C\C/C=C\CCCCCCCCCCCC(=O)O[C@@H](CO)COC(=O)CCCCCCCCCCCCC` [DG(18:1/18:1)]: in series [1] ([M+H-H2O]+), the “collision cross section (N2)” value is recorded as 263.5 Å². Regarding `CCCCCCCCCCCCCC/C=C\OC[C@@H](O)COP(=O)([O-])OCC[NH3+]` [LPE(p16:0)], the figures for the “collision cross section (N2)” value in series [1] ([M+H]+), in series [1] ([M+Na]+) and in series [1] ([M-H]-) were 215.6 Å², 214.7 Å² and 204.7 Å², respectively. `CCCCCCCC/C=C\CCCCCC/C=C\OC[C@@H](O)COP(=O)([O-])OCC[NH3+]` [LPE(p18:1)]: the entries for the “collision cross section (N2)” value in series [1] ([M+H]+), in series [1] ([M+Na]+) and in series [1] ([M-H]-) were 217.2 Å², 216.5 Å² and 208.9 Å², respectively. On to `CC/C=C\C/C=C\C/C=C\C/C=C\C/C=C\C/C=C\CCC(=O)O[C@H](COC(=O)CCCCCCCCCCCCCCC)COP(=O)(O)O` [PA(38:6)], for which the “collision cross section (N2)” value in series [1] ([M-H]-) is 260.9 Å². For `CCCCC/C=C\C/C=C\C/C=C\C/C=C\CCCCCC(=O)O[C@H](COC(=O)CCCCCC/C=C\C/C=C\C/C=C\CCCCC)COP(=O)(O)OCCN` [PE(42:7)], the “collision cross section (N2)” value in series [1] ([M+H]+) stood at 291.7 Å².

As for `CC/C=C\C/C=C\C/C=C\C/C=C\CCCCC(=O)O[C@H](CO/C=C\CCCCCCCCCCCCCCCC)COP(=O)(O)OCCN` [PE(p36:4)], the “collision cross section (N2)” value in series [1] ([M+Na]+) worked out at 275.5 Å²; in series [1] ([M-H]-), 264.6 Å².

For the molecule `CCCCC/C=C\C/C=C\CCCCCCCCCCCC(=O)O[C@H](CO/C=C\CCCCCCCCCCCCCC)COP(=O)(O)OCCN` [PE(p38:2)], the “collision cross section (N2)” value was determined as 284 Å² in series [1] ([M+H]+) and 272.7 Å² in series [1] ([M-H]-). Regarding `CCCCC/C=C\C/C=C\CCCCCCCCCC(=O)O[C@H](CO/C=C\CCCCCCCCCCCCCCCCCC)COP(=O)(O)OCCN` [PE(p40:2)], the entries for the “collision cross section (N2)” value in series [1] ([M+H]+) and in series [1] ([M+Na]+) were 290 Å² and 291.1 Å², respectively. Regarding `CC/C=C\C/C=C\C/C=C\C/C=C\C/C=C\C/C=C\CCC(=O)O[C@H](CO/C=C\CCCCCCCCCCCCCCCC)COP(=O)(O)OCCN` [PE(p40:6)], the “collision cross section (N2)” value in series [1] ([M+H]+) was found to be 283.5 Å²; in series [1] ([M+Na]+), 286.8 Å²; in series [1] ([M-H]-) it was 274.4 Å². Take `CC/C=C\C/C=C\C/C=C\C/C=C\C/C=C\C/C=C\CCC(=O)O[C@H](CO/C=C\CCCCCC/C=C\CCCCCCCC)COP(=O)(O)OCCN` [PE(p40:7)]: the “collision cross section (N2)” value was found to be 283 Å² in series [1] ([M+H]+) and 281 Å² in series [1] ([M+Na]+). Turning to `CCCCC/C=C\C/C=C\C/C=C\C/C=C\CCCC(=O)OC[C@H](COP(=O)(O)OC[C@@H](O)CO)OC(=O)CCCCCCC/C=C\CCCCCC` [PG(36:5)], the “collision cross section (N2)” value in series [1] ([M+Na]+) turned out to be 277.8 Å².

For the molecule `CCCCC/C=C\C/C=C\C/C=C\CCCCCCC(=O)OC[C@H](COP(=O)(O)OC[C@@H](O)CO)OC(=O)CCCCCCCCC/C=C\CCCCCCCC` [PG(40:4)], the “collision cross section (N2)” value in series [1] ([M-H]-) came out at 283.7 Å². On to `CCCCCCCCCCCCCCCCCCC(=O)OC[C@H](COP(=O)(O)O[C@H]1C(O)C(O)C(O)[C@@H](O)C1O)OC(=O)CCCCCCCCCCCCCCCC` (stereo partly specified) [PI(36:0)], for which the “collision cross section (N2)” value in series [1] ([M+Na]+) amounted to 298.6 Å². In the case of `CCCCC/C=C\C/C=C\C/C=C\C/C=C\CCCC(=O)O[C@H](COC(=O)CCCCCC/C=C\C/C=C\C/C=C\CCCCC)COP(=O)(O)O[C@H]1C(O)C(O)C(O)[C@@H](O)C1O` (stereo partly specified) [PI(40:7)], in series [1] ([M+Na]+), the “collision cross section (N2)” value is recorded as 298.8 Å². On to `CC/C=C\C/C=C\C/C=C\C/C=C\CCCCC(=O)OC[C@H](COP(=O)(O)O[C@H]1C(O)C(O)C(O)[C@@H](O)C1O)OC(=O)CCCCC/C=C\C/C=C\C/C=C\C/C=C\CCCCC` (stereo partly specified) [PI(40:8)], for which the “collision cross section (N2)” value in series [1] ([M+Na]+) was determined as 296.8 Å². As to `CCCCCCCC/C=C\CCCCCCCC(=O)OC[C@H](COP(=O)(O)O[C@H]1C(O)C(O)C(O)[C@@H](OP(=O)(O)O)C1O)OC(=O)CCCCCCCCCCCCCCCCC` (stereo partly specified) [PIP(36:1)], the “collision cross section (N2)” value in series [1] ([M+H-H2O]+) was determined as 296.4 Å².

Turning to `CCCCC/C=C\C/C=C\CCCCCCCC(=O)O[C@H](COC(=O)CCCCCCC/C=C\CCCCCCCC)COP(=O)(O)O[C@H]1C(O)C(O)C(O)[C@@H](OP(=O)(O)O)C1O` (stereo partly specified) [PIP(36:3)], the “collision cross section (N2)” value in series [1] ([M+H-H2O]+) is 292.7 Å². Consider `CCCCC/C=C\C/C=C\C/C=C\C/C=C\CCCC(=O)O[C@H](COC(=O)CCCCCCCCCCCCCCCCC)COP(=O)(O)O[C@H]1C(O)C(O)C(O)[C@@H](OP(=O)(O)O)C1O` (stereo partly specified) [PIP(38:4)], for which the “collision cross section (N2)” value in series [1] ([M+H-H2O]+) worked out at 300.5 Å². Turning to `CCCCC/C=C\C/C=C\C/C=C\CCCCCCC(=O)OC[C@H](COP(=O)(O)OC[C@H](N)C(=O)O)OC(=O)CCCCCCCCCCC/C=C\C/C=C\CCCCC` [PS(42:05)], the “collision cross section (N2)” value in series [2] ([M+2Na-H]+) is reported as 300.15 Å²; in series [2] ([M+H]+), 295.24 Å²; in series [2] ([M+Na]+) it was 297.67 Å². As for `CC/C=C\C/C=C\C/C=C\C/C=C\C/C=C\C/C=C\CCC(=O)OC[C@H](COP(=O)(O)OC[C@H](N)C(=O)O)OC(=O)CCCCCCCCCCC/C=C\C/C=C\CCCCC` [PS(44:08)], the “collision cross section (N2)” value in series [2] ([M+2Na-H]+) is recorded as 301.25 Å².

Regarding `CCCC/C=C\C/C=C\CCCCCCCC(=O)O[C@H](COCCCCCCCCCCCCCCCCCC)COP(=O)(O)OC[C@H](N)C(=O)O` [PS(o35:02)], the “collision cross section (N2)” value in series [2] ([M+2Na-H]+) was found to be 282.4 Å². Take `CCCCCCCCCCCCC=CC[C@@H](O)[C@H](COP(=O)([O-])OCC[N+](C)(C)C)NC(=O)CC=CCCCCCCCCCCCCCC` [SM(36:02)]: the “collision cross section (N2)” value amounted to 289.73 Å² in series [2] ([M+HCOO]-), 284.15 Å² in series [2] ([M+H]+) and 280.32 Å² in series [2] ([M+Na]+). In the case of `CCCCCCCCCCCCCCCCCCCCCC(=O)N[C@@H](COP(=O)([O-])OCC[N+](C)(C)C)[C@H](O)CCCCCCCCCCCCCCC` [SM(40:00)], the entries for the “collision cross section (N2)” value in series [2] ([M+Cl]-), in series [2] ([M+HCOO]-) and in series [2] ([M+H]+) were 301.5 Å², 303.38 Å² and 299.61 Å², respectively. Turning to `CCCCCCCCCCCCC=CC[C@@H](O)[C@H](COP(=O)([O-])OCC[N+](C)(C)C)NC(=O)CCCCCCCCCCCCCCCCCCCCC` [SM(40:01)], the “collision cross section (N2)” value in series [2] ([M+Cl]-) is listed as 300.79 Å²; in series [2] ([M+HCOO]-), 301.44 Å²; in series [2] ([M+H]+), 297.88 Å²; in series [2] ([M+Na]+) it was 296 Å². On to `CCCCCCCCCCCCCCCCCCCCCCC(=O)N[C@@H](COP(=O)([O-])OCC[N+](C)(C)C)[C@H](O)CCCCCCCCCCCCCCC` [SM(41:00)], for which the “collision cross section (N2)” value in series [2] ([M+2Na-H]+) stood at 301.12 Å²; in series [2] ([M+H]+), 302.29 Å².

As for `CCCCCCCCCCCCC=CC[C@@H](O)[C@H](COP(=O)([O-])OCC[N+](C)(C)C)NC(=O)CC=CCCCCCCCCCCCCCCCCCCC` [SM(41:02)], the entries for the “collision cross section (N2)” value in series [2] ([M+HCOO]-), in series [2] ([M+H]+) and in series [2] ([M+Na]+) were 303.33 Å², 298.91 Å² and 296.38 Å², respectively. In the same order, the values of `CCCCCCCCCCCCC=CC[C@@H](O)[C@H](COP(=O)([O-])OCC[N+](C)(C)C)NC(=O)CC=CCC=CCCCCCCCCCCCCCCCCC` [SM(42:03)] are 304.85 Å², 299.58 Å² and 297.59 Å².

Regarding `CCCCCCCCCCCCC=CC[C@@H](O)[C@H](COP(=O)([O-])OCC[N+](C)(C)C)NC(=O)CCCCCCCCCCCCCCCCCCCCCCCC` [SM(43:01)], the “collision cross section (N2)” value was 306.91 Å² in series [2] ([M+H]+) and 304.16 Å² in series [2] ([M+Na]+).

For `CCCCCCCCCCCCC=CC[C@@H](O)[C@H](COP(=O)([O-])OCC[N+](C)(C)C)NC(=O)CC=CCCCCCCCCCCCCCCCCCCCCC` [SM(43:02)], the “collision cross section (N2)” value in series [2] ([M+H]+) is 304.47 Å²; in series [2] ([M+Na]+), 303.6 Å². `CCCCCCCCCCCCC=CC[C@@H](O)[C@H](COP(=O)([O-])OCC[N+](C)(C)C)NC(=O)CC=CCCCCCCCCCCCCCC` [SM(d18:1/18:1)]: the “collision cross section (N2)” value in series [1] ([M+H]+) stood at 283.2 Å².

For the molecule `CCCCCCCCCCCCC=CC[C@@H](O)[C@H](COP(=O)([O-])OCC[N+](C)(C)C)NC(=O)CCCCCCCCCCCCCCCCCCCCC` [SM(d18:1/22:0)], the “collision cross section (N2)” value in series [1] ([M+H]+) was determined as 297.1 Å².
